Legend:
3×Tg-AD mice = assay: Short-term memory in single alternation T-maze, 3×Tg-AD mice; type: in vivo; details: 10 mg/kg in saline 1 hr prior to testing, vs saline controls, p<0.001
Experimental: In this model, genes that cause Alzheimer's disease have been cloned from living Alzheimer's patients and then directly cloned into the genome of living mice to create Alzheimer mice (3×Tg-AD mice). […] (Oddo, S., et al., Triple-transgenic model of Alzheimer's disease with plaques and tangles: intracellular Abeta and synaptic dysfunction. Neuron, 2003; 39(3):409-21.)
Short-term memory was assessed in a well-accepted memory model (single alternation T-maze). In these studies, animals were administered 10 mg/kg PD2005 in saline 1 hr prior to testing and controls were administered only saline.

patients with dementia = details: Alzheimer's disease, frontotemporal dementia, vascular dementia; Dolder et al. review; cited from earlier work
dopamine transporter = dopamine transporter (Homo sapiens, UniProt Q01959); details: result in words; cited from earlier work
dopamine transporter, sequence (Q01959 whole entry): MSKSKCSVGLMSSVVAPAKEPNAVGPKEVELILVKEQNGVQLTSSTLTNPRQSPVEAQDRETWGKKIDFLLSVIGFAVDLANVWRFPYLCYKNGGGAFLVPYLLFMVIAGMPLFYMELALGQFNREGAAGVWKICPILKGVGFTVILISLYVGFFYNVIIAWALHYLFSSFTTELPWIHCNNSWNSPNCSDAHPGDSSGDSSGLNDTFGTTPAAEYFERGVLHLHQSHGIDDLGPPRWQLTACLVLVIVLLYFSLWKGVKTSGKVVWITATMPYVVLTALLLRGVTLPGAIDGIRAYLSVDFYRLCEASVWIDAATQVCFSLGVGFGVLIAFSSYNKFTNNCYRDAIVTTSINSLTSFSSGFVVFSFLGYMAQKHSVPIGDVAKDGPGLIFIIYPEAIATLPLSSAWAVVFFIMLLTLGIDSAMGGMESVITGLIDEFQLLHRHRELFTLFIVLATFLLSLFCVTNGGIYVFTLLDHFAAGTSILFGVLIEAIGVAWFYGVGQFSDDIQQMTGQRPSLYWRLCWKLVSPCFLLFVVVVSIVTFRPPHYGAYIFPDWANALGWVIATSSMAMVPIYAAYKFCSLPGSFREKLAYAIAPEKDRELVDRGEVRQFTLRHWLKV

C=CCN1C2CCC1CC(OC(c1ccc(F)cc1)c1ccc(F)cc1)C2 (stereo not drawn) [PD2005, N-allyl-4′,4″-difluoro-3α-diphenyl-methoxytropane]
improvement in memory (3×Tg-AD mice; first day of testing): 140%
memory improvement (3×Tg-AD mice; following day of testing): 113%

COC(=O)C(c1ccccc1)C1CCCCN1 (centres unmarked) [methylphenidate]
effectiveness in patients with dementia (patients with dementia): not effective

CN1[C@@H]2CC[C@H]1C[C@@H](OC(c1ccccc1)c1ccccc1)C2 [benztropine]
affinity for the dopamine transporter (dopamine transporter): high affinity

CC(N)Cc1ccccc1 (centres unmarked) [amphetamine]
effectiveness in patients with dementia (patients with dementia): not effective

Source: patent publication US20150258077A1, “SUBSTITUTED B[…] FOR TREATMENT OF DEMENTIA” (P2D Inc., priority 2012, published 2015)
